Experimental data taken from patent publication US10406126B2, “ALDH2 activator” (Eisai R&D Management Co., Ltd., priority 2018, dated 2019).

How the values were obtained:
[1] = Description: (Comparison of Amounts of Produced Reactive Metabolites)
Ability of compounds to produce reactive metabolites was evaluated, using the method as described below. Cytochrome P450 (CYP) dependent metabolism was initiated, by adding 1 mg/mL human liver microsome, 0.2 mmol/L compound, and 0.1 mmol/L RI-labeled capture agent, and lastly 1 mmol/L NADPH to 100 mM phosphate buffer (pH 7.4). After incubation at 37° C. for 60 minutes, the reaction mixture (0.1 mL) and an equal volume of acetonitrile were added to stop the metabolic reaction. After 0.8 mL of water was added to the supernatant from centrifugation, 0.5 mL of the resulting solution was injected into HPLC connected to a radio detector and a covalent complex between the reactive metabolite and Relabeled capture agent was quantitatively analyzed for its RI intensity.

[2] = biological target: T1, aldehyde dehydrogenase 2 (ALDH2) (Homo sapiens, UniProt P05091); experiment: Effects of compounds on the acetaldehyde oxidation rate by ALDH2 (PicoProbe Aldehyde dehydrogenase Activity Assay Kit); assay type: biochemical; conditions: read-out: acetaldehyde oxidation rate (rate in the absence of the compounds = 100); for activity at 1 µM: compound concentration 1 μM; for activity at 10 µM: compound concentration 10 μM
T1 construct: purchased ATGen Inc
T1 sequence (P05091 18-517): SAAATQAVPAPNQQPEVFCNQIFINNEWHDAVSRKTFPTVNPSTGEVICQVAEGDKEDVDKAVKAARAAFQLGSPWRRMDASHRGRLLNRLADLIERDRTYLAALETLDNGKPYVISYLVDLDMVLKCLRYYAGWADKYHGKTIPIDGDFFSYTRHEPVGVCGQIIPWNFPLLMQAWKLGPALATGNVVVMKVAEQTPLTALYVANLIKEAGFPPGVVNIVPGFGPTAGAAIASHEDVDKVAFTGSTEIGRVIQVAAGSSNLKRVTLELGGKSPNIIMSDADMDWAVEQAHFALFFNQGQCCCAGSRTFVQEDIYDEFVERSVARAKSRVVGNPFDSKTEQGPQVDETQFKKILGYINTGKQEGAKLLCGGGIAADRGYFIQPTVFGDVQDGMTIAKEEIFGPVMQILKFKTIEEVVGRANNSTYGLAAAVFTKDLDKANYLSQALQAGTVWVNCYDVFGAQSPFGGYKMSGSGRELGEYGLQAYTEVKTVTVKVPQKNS
Description: (Effects of Compounds on the Acetaldehyde Oxidation Rate by Aldehyde Dehydrogenase 2 (ALDH2))
Effects of compounds on the acetaldehyde oxidation rate by aldehyde dehydrogenase 2 (ALDH2) were evaluated using a method known in the art. Specifically, the test was performed using a commercially available kit, PicoProbe™ Aldehyde dehydrogenase Activity Assay Kit (from BioVision Inc.) in accordance with the product's instruction. Reagents as described below were sequentially added to each well in a 384-well plate with a pipette.
1. 10 μL of the commercially available ALDH2 enzyme (from ATGen Inc.) dissolved in ALDH assay Buffer so as to obtain a concentration of 1 μg/mL.
2. 10 μL, of 30 μM or 3 μM compound solution (containing 3% DMSO) prepared with ALDH assay Buffer
3. […] of Reaction mix consisting of 7.82 μL of ALDH assay Buffer, 0.55 μL of PicoProbe, 0.27 μL of Substrate Mix, and 1.36 μL of Acetaldehyde
Before addition of 3, the plate was incubated at room temperature for 5 minutes. After addition of 3, fluorescence was determined using EnVision 2101 Multilabel Reader (from PerkinElmer Inc.) at room, temperature over 60 minutes. The measurements were taken at interval of 2 minutes.
Fluorescence was detected at an excitation wavelength of 535 nm and an emission wavelength of587 nm.
Table 1 lists the oxidation rates when the compounds are added, in which the rates are calculated on the basis of the assumption that the acetaldehyde oxidation rates in the absence of the compounds are 100. The rate for Comparative Example 1 compound was normalized to a value of “175” for 10 μM of the compound concentration while the rate for Comparative Example 1 compound was normalized to a value of “137” for 1 μM of the compound concentration.

[3] = system: mechanical allodynia induced by carrageenan in C57 BL/6J mice; experiment: Suppressive effect of pain induced by carrageenan (von Frey withdrawal score); assay type: in vivo, mouse; conditions: mean ± S.E.
Description: (Suppressive Effect of Pain Induced by Carrageenan)
This experiment was earned out with reference to Science Translational Medicine 6, 251 r118 (2014). Male C57 BL/6J mice (Charles River Japan) of 7-week-old were used. Carrageenan was subcutaneously administered to the mouse by intraplantar injection of the left hind paw to induce mechanical allodynia in the footpad. Mechanical stimulus-evoked withdrawal response at 180 min after the induction was assessed by applying a von Frey filament (ascending bending force 0.16 g) to the footpad, of the hind paw. The filament was perpendicularly applied to the footpad so that the filament was bent for 6 second. The withdrawal response was scored in three stages (0: no response or startle response (moving paw without lifting); 1: lifting of paw; 2: licking or shaking of paw). The mouse was stimulated ten times and the sum of the scores of the ten stimulation (withdrawal score) was calculated.
The compound of Example 1 was dissolved in DMSO/5% glucose solution for injection (1:1 by volume ratio). […]
Wilcoxon rank sum test was used to compare the vehicle-treated group and the Example 1-treated group. The significance level was calculated as 5%, divided into less than 5% (p<0.05) and less than 1% (p<0.01). […]

| Compound | amount of reactive metabolites produced, in words [1] | activity at 1 µM [2] [%] | activity at 10 µM [2] [%] | Total pain-related score (withdrawal score) ([3]; 180 min after carrageenan induction, 12 mg/kg s.c. three times, **p < 0.01 vs vehicle) | Total pain-related score (withdrawal score) ([3]; Pre: before carrageenan induction) |
| --- | --- | --- | --- | --- | --- |
| O=C(NCc1ccc2c(c1)OCO2)c1c(Cl)cccc1Cl [Comparative Example 1, N-[(2H-1,3-Benzodioxol-5-yl)methyl]-2,6-dichlorobenzamide, reference compound] | produces reactive metabolites as much as clozapine | 137 | 175 |  |  |
| O=C(NCc1ccc2c(c1)OCCO2)c1c(Cl)cccc1Cl [Comparative Example 2, 2,6-dichloro-N-[(2,3-dihydro-1,4-benzodioxin-6-yl)methyl]benzamide, reference compound] |  | 125 | 164 |  |  |
| COCc1ccc(CNC(=O)c2c(Cl)cccc2Cl)cc1F [Example 1, 2,6-Dichloro-N-{[3-fluoro-4-(methoxymethyl)phenyl]methyl}benzamide] |  | 138 | 179 | 6.8 ± 1.0** | 1.6 ± 0.2 |
| COCc1cc(F)c(CNC(=O)c2c(Cl)cccc2Cl)cc1F [Example 2, 2,6-Dichloro-N-{[3,6-difluoro-4-(methoxymethyl)phenyl]methyl}benzamide] |  | 125 | 168 |  |  |
| COCc1ccc(CNC(=O)c2c(Cl)cccc2Cl)cc1 [Example 3, 2,6-Dichloro-N-[4-(methoxymethyl)benzyl]benzamide] |  | 117 | 156 |  |  |
| COCc1ccc(CNC(=O)c2c(Cl)cccc2Cl)cc1C [Example 4, 2,6-Dichloro-N-{[4-(methoxymethyl)-3-methylphenyl]methyl}benzamide] |  | 136 | 175 |  |  |
| COCc1ccc(CNC(=O)c2c(Cl)cccc2Br)cc1F [Example 5, 2-Bromo-6-chloro-N-{[3-fluoro-4-(methoxymethyl)phenyl]methyl}benzamide] |  | 129 | 168 |  |  |
| COCc1ccc(CNC(=O)c2ccccc2Cl)cc1F [Example 6, 2-Chloro-N-{[3-fluoro-4-(methoxymethyl)phenyl]methyl}benzamide] |  | 108 | 148 |  |  |
| COCc1ccc(CNC(=O)c2ccccc2Br)cc1F [Example 7, 2-Bromo-N-{[3-fluoro-4-(methoxymethyl)phenyl]methyl}benzamide] |  | 119 | 156 |  |  |
| COCc1ccc(CNC(=O)c2c(F)cccc2Br)cc1F [Example 8, 2-Bromo-6-fluoro-N-{[3-fluoro-4-(methoxymethyl)phenyl]methyl}benzamide] |  | 128 | 165 |  |  |
| COCc1ccc(CNC(=O)c2c(F)cccc2Cl)cc1F [Example 10, 2-Chloro-6-fluoro-N-{[3-fluoro-4-(methoxymethyl)phenyl]methyl}benzamide] |  | 125 | 168 |  |  |
| COCc1ccc(CNC(=O)c2c(C)cccc2C)cc1F [Example 11, N-{[3-Fluoro-4-(methoxymethyl)phenyl]methyl}-2,6-dimethylbenzamide] |  | 117 | 156 |  |  |
| COCc1ccc(CNC(=O)c2c(Cl)cccc2C(C)C)cc1F [Example 12, 2-Chloro-N-[3-fluoro-4-(methoxymethyl)benzyl]-6-isopropylbenzamide] |  | 136 | 175 |  |  |
| COCc1ccc(CNC(=O)c2c(F)cccc2F)cc1F [Example 13, 2,6-Difluoro-N-{[3-fluoro-4-(methoxymethyl)phenyl]methyl}benzamide] |  | 114 | 143 |  |  |
